This is an account of results in PubChem BioAssay AID318 (DTP/NCI, 2004).

The subject of this test is BDF1 mice, P815 leukemia ip, survival T/C. The test can be described thus: NCI In Vivo Anticancer Drug Screen. Data for tumor model P815 Mast Cell Leukemia (Ascitic) (intraperitoneal) in B6D2F1 (BDF1) mice. Conditions: higher = longer survival. As to the method:
The antitumor activity of compounds was measured in mice bearing transplantable tumors. Survival or tumor size were measured and the results are expressed as the measurement made in the treated group (T) divided by the measurement made in the vehicle treated control group (C). The tumor model used in this assay is P815 Mast Cell Leukemia (Ascitic) (intraperitoneal) in B6D2F1 (BDF1) mice

The mark [1] stands for this setting: endpoint: survival time, mean or median, dose: 0.25 mg/kg/injection, schedule: Q01DX010 (ip), vehicle: saline.
[2] abbreviates: endpoint: survival time, mean or median, dose: 50.0 mg/kg/injection, schedule: Q01DX015 (ip), vehicle: carboxymethylcellulose (CMC).
Where [3] appears, read: endpoint: survival time, mean or median, dose: 25.0 mg/kg/injection, schedule: Q01DX010 (ip), vehicle: saline.
Where [4] appears, read: endpoint: survival time, mean or median, dose: 50.0 mg/kg/injection, schedule: Q01DX010 (ip), vehicle: saline.

“And” between values parts separate entries of the source, which are not always exact repeats. Equal entries are not always repeated. Inconclusive results and toxic doses are left out. Starred links: 1 amine or outer side, 2 acyl side, 3 side chain; linkers in the order of their positions; H or OH if unused. Positions of bridges follow the written chain, without caps; N, C: chain ends. Non-standard residues stand in square brackets, D forms with d. Residues, ends and D or L forms follow the SMILES beside them. Chains are numbered I, II in the order given. Actinocin(9to1) = Cc1c2oc3c(C)ccc(C(=O)[*:1])c3nc-2c(C(=O)[*:2])c(N)c1=O; aThr = C[C@H](O)[C@H](N)C(=O)O; NMeV = CN[C@H](C(=O)O)C(C)C; Sar = CNCC(=O)O

Consider `CCCCOP(=S)(N1CC1)N1CC1`, for which the T/C reads like this: (endpoint: survival time, mean or median, dose: 4.0 mg/kg/injection, schedule: Q01DX010 (ip), vehicle: saline) 120 % of control and 122 % of control; (endpoint: survival time, mean or median, dose: 16.0 mg/kg/injection, schedule: Q01DX010 (ip), vehicle: saline) 90 % of control and 122 % of control; (endpoint: survival time, mean or median, dose: 32.0 mg/kg/injection, schedule: Q01DX010 (ip), vehicle: saline) 90 % of control.

Turning to `NOCc1cscn1`, the T/C by setting is: (endpoint: median survival time, dose: 25.0 mg/kg/injection, schedule: Q01DX010 (ip), vehicle: saline sonified) 87 % of control; (endpoint: median survival time, dose: 50.0 mg/kg/injection, schedule: Q01DX010 (ip), vehicle: saline sonified) 100 % of control.

With `COc1cc(-c2ccc(Nc3ccccc3C(=O)O)c(OC)c2)ccc1Nc1ccccc1C(=O)O`, the T/C (endpoint: survival time, mean or median, dose: 45.0 mg/kg/injection, schedule: Q01DX010 (ip), vehicle: saline) is 108 % of control and the T/C (endpoint: survival time, mean or median, dose: 67.0 mg/kg/injection, schedule: Q01DX010 (ip), vehicle: saline) was 120 % of control.

Take `CCn1cnc2c(=S)nc[nH]c21`: the T/C was 94 % of control (endpoint: survival time, mean or median, dose: 15.6 mg/kg/injection, schedule: Q01DX010 (ip), vehicle: saline); 98 % of control and 102 % of control (endpoint: survival time, mean or median, dose: 31.3 mg/kg/injection, schedule: Q01DX010 (ip), vehicle: saline); 97 % of control (endpoint: survival time, mean or median, dose: 62.5 mg/kg/injection, schedule: Q01DX010 (ip), vehicle: saline).

On to `N#C[C@@H]1C2C=CC(CC2)[C@H]1C#N`, for which the T/C was 100 % of control under setting [1]; 100 % of control and 105 % of control (endpoint: survival time, mean or median, dose: 0.5 mg/kg/injection, schedule: Q01DX010 (ip), vehicle: saline); 100 % of control (endpoint: survival time, mean or median, dose: 1.0 mg/kg/injection, schedule: Q01DX010 (ip), vehicle: saline); 88 % of control and 100 % of control (endpoint: survival time, mean or median, dose: 2.0 mg/kg/injection, schedule: Q01DX010 (ip), vehicle: saline).

As to `CC(=O)OCC1OC(n2cnc3c(=S)nc[nH]c32)C(OC(C)=O)C1OC(C)=O` (configuration not stated), the T/C runs as follows: under setting [2], 162 % of control; (endpoint: survival time, mean or median, dose: 100.0 mg/kg/injection, schedule: Q01DX015 (ip), vehicle: carboxymethylcellulose (CMC)) 100 % of control.

Consider `NC12CC3CC(CC(C3)C1)C2`, for which the T/C under setting [3] was 100 % of control; the T/C under setting [4] is 100 % of control; the T/C (endpoint: survival time, mean or median, dose: 100.0 mg/kg/injection, schedule: Q01DX010 (ip), vehicle: saline) is 105 % of control.

As to `Cc1c2oc3c(C)ccc(C(=O)N[C@@H]4C(=O)N[C@H](C(C)C)C(=O)N5CCC[C@H]5C(=O)N(C)CC(=O)N(C)[C@@H](C(C)C)C(=O)O[C@H]4C)c3nc-2c(C(=O)N[C@@H]2C(=O)N[C@H](C(C)C)C(=O)N3CCC[C@H]3C(=O)N(C)CC(=O)N(C)[C@@H](C(C)C)C(=O)O[C@H]2C)c(N)c1=O` (I: [aThr][dV]P[Sar][NMeV] / II: [aThr][dV]P[Sar][NMeV]; ester I:1-I:C, II:1-II:C; linker I:N-II:N via Actinocin(9to1)), the T/C reads like this: (endpoint: median survival time, dose: 180.0 micrograms/kg/injection, schedule: Q04DX003 (ip), vehicle: saline + alcohol) 122 % of control; (endpoint: median survival time, dose: 300.0 micrograms/kg/injection, schedule: Q04DX003 (ip), vehicle: saline + alcohol) 105 % of control; (endpoint: median survival time, dose: 500.0 micrograms/kg/injection, schedule: Q04DX003 (ip), vehicle: saline + alcohol) 90 % of control.

As for `O=C(Nc1ccc(C2=NCCN2)cc1)c1ccc(C(=O)Nc2ccc(C3=NCCN3)cc2)c([N+](=O)[O-])c1`, the T/C was 171 % of control (endpoint: survival time, mean or median, dose: 6.0 mg/kg/injection, schedule: Q01DX010 (ip), vehicle: saline); 284 % of control (endpoint: survival time, mean or median, dose: 8.0 mg/kg/injection, schedule: Q01DX010 (ip), vehicle: saline); 92 % of control (endpoint: survival time, mean or median, dose: 12.0 mg/kg/injection, schedule: Q01DX010 (ip), vehicle: saline).

In the case of `CCN(CC)CCNc1ccc(C)c2sc3ccccc3c(=O)c12`, the T/C was 107 % of control and 113 % of control under setting [3]; 118 % of control and 123 % of control under setting [4].

`C=CCSc1nc(N)nc2nc[nH]c12`: the T/C (endpoint: survival time, mean or median, dose: 15.0 mg/kg/injection, schedule: Q01DX015 (ip), vehicle: other) was 113 % of control; the T/C (endpoint: survival time, mean or median, dose: 16.0 mg/kg/injection, schedule: Q01DX015 (ip), vehicle: other) was 109 % of control; the T/C (endpoint: survival time, mean or median, dose: 31.0 mg/kg/injection, schedule: Q01DX015 (ip), vehicle: other) was 96 % of control and 107 % of control; the T/C (endpoint: survival time, mean or median, dose: 62.0 mg/kg/injection, schedule: Q01DX015 (ip), vehicle: other) was 106 % of control and 112 % of control; the T/C (endpoint: survival time, mean or median, dose: 125.0 mg/kg/injection, schedule: Q01DX015 (ip), vehicle: other) was 89 % of control and 91 % of control.

For the molecule `NC(=O)c1[nH]nc(C2OC(CO)C(O)C2O)c1O` (configuration not stated), the T/C is 102 % of control (endpoint: median survival time, dose: 1.56 mg/kg/injection, schedule: Q04DX003 (ip), vehicle: saline); 104 % of control (endpoint: median survival time, dose: 2.59 mg/kg/injection, schedule: Q04DX003 (ip), vehicle: saline); 103 % of control (endpoint: median survival time, dose: 4.32 mg/kg/injection, schedule: Q04DX003 (ip), vehicle: saline); 121 % of control (endpoint: median survival time, dose: 7.2 mg/kg/injection, schedule: Q04DX003 (ip), vehicle: saline); 114 % of control (endpoint: median survival time, dose: 12.0 mg/kg/injection, schedule: Q04DX003 (ip), vehicle: saline); 104 % of control (endpoint: median survival time, dose: 20.0 mg/kg/injection, schedule: Q04DX003 (ip), vehicle: saline).

With `N[C@@H](Cc1ccc(N(CCCl)CCCl)cc1)C(=O)O`, the T/C is 231 % of control (endpoint: survival time, mean or median, dose: 1.0 mg/kg/injection, schedule: Q01DX015 (ip), vehicle: carboxymethylcellulose (CMC)); 257 % of control (endpoint: survival time, mean or median, dose: 2.0 mg/kg/injection, schedule: Q01DX015 (ip), vehicle: carboxymethylcellulose (CMC)); 182 % of control and 195 % of control (endpoint: survival time, mean or median, dose: 4.0 mg/kg/injection, schedule: Q01DX015 (ip), vehicle: carboxymethylcellulose (CMC)); 103 % of control (endpoint: survival time, mean or median, dose: 8.0 mg/kg/injection, schedule: Q01DX015 (ip), vehicle: carboxymethylcellulose (CMC)).

On to `CN=C(NC)c1ccc(NC(=O)c2ccc(C(=O)Nc3ccc(C(=NC)NC)cc3)c(Cl)c2)cc1`, for which the T/C was 91 % of control (endpoint: survival time, mean or median, dose: 18.0 mg/kg/injection, schedule: Q01DX010 (ip), vehicle: saline) and 100 % of control (endpoint: survival time, mean or median, dose: 27.0 mg/kg/injection, schedule: Q01DX010 (ip), vehicle: saline).

As for `S=P(N1CCOCC1)(N1CC1)N1CC1`, the T/C is 97 % of control and 100 % of control (endpoint: survival time, mean or median, dose: 2.5 mg/kg/injection, schedule: Q01DX010 (ip), vehicle: saline); 100 % of control (endpoint: survival time, mean or median, dose: 40.0 mg/kg/injection, schedule: Q01DX010 (ip), vehicle: saline).

Turning to `CC(Cl)CN(Cc1cc(O)c(CN(CC(C)Cl)CC(C)Cl)cc1O)CC(C)Cl` (configuration not stated), the T/C by setting is: (endpoint: survival time, mean or median, dose: 62.5 mg/kg/injection, schedule: Q01DX015 (ip), vehicle: carboxymethylcellulose (CMC)) 114 % of control; (endpoint: survival time, mean or median, dose: 125.0 mg/kg/injection, schedule: Q01DX015 (ip), vehicle: carboxymethylcellulose (CMC)) 99 % of control; (endpoint: survival time, mean or median, dose: 250.0 mg/kg/injection, schedule: Q01DX015 (ip), vehicle: carboxymethylcellulose (CMC)) 122 % of control; (endpoint: survival time, mean or median, dose: 500.0 mg/kg/injection, schedule: Q01DX015 (ip), vehicle: carboxymethylcellulose (CMC)) 124 % of control.

Regarding `C1CN1c1nc(N2CC2)nc(N2CC2)n1`, the T/C by setting is: (endpoint: survival time, mean or median, dose: 0.13 mg/kg/injection, schedule: Q01DX010 (ip), vehicle: saline) 111 % of control; under setting [1], 111 % of control; (endpoint: survival time, mean or median, dose: 125.0 micrograms/kg/injection, schedule: Q01DX010 (ip), vehicle: saline) 100 % of control; (endpoint: survival time, mean or median, dose: 250.0 micrograms/kg/injection, schedule: Q01DX010 (ip), vehicle: saline) 105 % of control; (endpoint: survival time, mean or median, dose: 1000.0 micrograms/kg/injection, schedule: Q01DX010 (ip), vehicle: saline) 94 % of control.

`CN(C)/N=N/c1nc[nH]c1C(N)=O`: the T/C reads like this: (endpoint: survival time, mean or median, dose: 25.0 mg/kg/injection, schedule: Q01DX015 (ip), vehicle: carboxymethylcellulose (CMC)) 103 % of control; under setting [2], 110 % of control; (endpoint: survival time, mean or median, dose: 150.0 mg/kg/injection, schedule: Q01DX015 (ip), vehicle: carboxymethylcellulose (CMC)) 96 % of control.

With `[I][Hg][CH2]C1COC([CH2][Hg][I])CO1` (configuration not stated), the T/C is, setting by setting: (endpoint: survival time, mean or median, dose: 3.13 mg/kg/injection, schedule: Q01DX010 (ip), vehicle: saline) 90 % of control; (endpoint: survival time, mean or median, dose: 6.25 mg/kg/injection, schedule: Q01DX010 (ip), vehicle: saline) 90 % of control; (endpoint: survival time, mean or median, dose: 12.5 mg/kg/injection, schedule: Q01DX010 (ip), vehicle: saline) 95 % of control; under setting [3], 90 % of control.
